These results are taken from PMC6858451, “Rhesus Theta Defensin 1 Promotes Long Term Survival in Systemic Candidiasis by Host Directed Mechanisms” (Scientific Reports, 2019).

The structures appear in SMILES notation. In brackets after ≈: the same amount, converted by molar mass. Bridge positions count the residues as written; N and C are the ends. Peptide text beside a SMILES is read from it. Some results are limits rather than exact numbers.

Data set [1] has as its system C. albicans 43001. Description: MIC/MFC, broth microdilution (modified CLSI M27-A2). The data set is classed as cell-based. How it is done: (§1) C. albicans strains were tested against RTD-1, fluconazole, and caspofungin in microdilution broth in accordance with Clinical and Laboratory Standards Institute (CLSI) document M27-A2 with the exception that 25 mM MOPS was used in place of 165 mM MOPS, as described previously. Overnight cultures were harvested by centrifugation, washed twice with Ca^2+ and Mg^2+-free PBS, pH 7.2, and suspended in test medium (RPMI 1640 medium, 25 mM MOPS, 2 mM L-glutamine) at 10^4 CFU/ml[62]. Incubations were conducted in flat bottom, 96-well microtiter plates (Greiner bio-one, Monroe, NC) containing 0.2 ml test medium per well. Duplicate 0.1 ml aliquots of serial two-fold dilutions of peptides and antifungal drugs were dispensed into wells, each of which was inoculated with 0.1 ml of fungal cell suspension containing 1 × 10^3 CFU. Plates were incubated at 30 °C for 48 hours after which A600 was determined using a SpectraMax M5e plate reader.
(§2) Minimal fungicidal concentration (MFC) was determined by plating, on YPD plates, 10 µl from wells in MIC assay without cell growth and the first well with measurable turbidity as described[63]–[66] and corresponding aliquots from the no-agent controls. […] MFC is reported as the lowest concentration of peptide or antifungal drug that killed ≥99% of the input organisms.
(§3) MICs and MFCs of RTD-1 were also performed in the presence of 50% mouse serum. Serum was prepared from blood collected by cardiac puncture from BALB/c mice. After coagulation at room temperature, serum was collected by centrifugation (200 g for 10 min followed by 23,000 g for 15 min), and diluted with an equal volume of yeast inoculum in MIC test medium described above.
(In general: Broth dilution looks for growth in wells or tubes with falling amounts of substance.)

The subject of data set [2] is C. albicans 53264. The description is as above. The data set is classed as cell-based. Here is the method: as §1, §2, §3
For data set [3], the system named is C. albicans SC5314. The data set is described as above. The data set is classed as cell-based. The note with it: Candida albicans. How it is done: as §1, §2, §3
Data set [4] has as its system C. albicans SC5314, 43001 and 53264. Nature of the data set: MIC/MFC, summary statements over the three strains. The data set is classed as cell-based. Here is the method: as §1
Minimal fungicidal concentration (MFC) was determined by plating, on YPD plates, 10 µl from wells in MIC assay without cell growth and the first well with measurable turbidity as described[63]–[66] and corresponding aliquots from the no-agent controls. Under MIC incubation conditions, no filamentation occurred allowing for accurate CFU counts after plating on YPD plates which were incubated for 24 h at 30 °C. […]

Data set [5] in a line: RTD-1 tolerability/toxicity in naive mice. The data set is classed as in vivo, BALB/c mice. Here is the method:
RTD-1 tolerability/toxicity was evaluated by i.p. dosing of naÏve BALB/c mice with RTD-1 at 5 mg/kg RTD-1 daily for 7 days, 20 mg/kg every other day for 10 days, and once at 50 mg/kg.

Data set [6] is described as follows: RTD-1 plasma pharmacokinetics. How it is done:
RTD-1 plasma levels were also analyzed 60 or 240 min after additional daily 5 mg/kg i.p. doses administered up to 6 days.
Single dose PK of RTD-1 was evaluated by quantifying plasma peptide concentrations at intervals following 5 mg/kg bolus injections administered i.v. and i.p. to CD-1 mice. At indicated intervals, plasma was prepared from EDTA-anticoagulated blood collected aseptically by terminal cardiac puncture. Plasma was diluted 1:10 or 1:20 into 5% formic/5% acetonitrile. RTD-1 plasma concentrations were determined by reverse-phase liquid chromatography (XBridge phenyl 3.5 µm column, Waters) on an Acquity H-Class UPLC (Waters) with tandem electrospray mass spectroscopy on a Xevo TQ-S running MassLynx V4.1 (Waters). Quantitative mass spectroscopy was performed by multiple-reaction monitoring transition 417.38 > 517.14, with area under the curve determined by TargetLynx (Waters). Pharmacokinetic modeling of intravenous RTD-1 concentration-time data was performed with ADAPT (version 5) software using the naïve pooled data approach. One- and two-compartment models were evaluated. Model selection was based on the Akaike information criterion (AIC) and the Bayesian information criterion (BIC) scores, the likelihood ratio test (LRT), and goodness-of-fit plots. […] Area under the curve (AUC24) was calculated by taking the average of RTD-1 concentrations at each time point and applying the linear trapezoidal method. Bioavailability (F) for i.p. injection was determined using the ratio of AUCs from i.p. and i.v.

The test system of data set [7] is blood neutrophils, monocytes and inflammatory cytokines. Description: Hematology and plasma cytokine analyses in naive and candidemic mice. The data set is classed as in vivo. The source says:
EDTA-anticoagulated blood was collected aseptically by terminal cardiac puncture and analyzed for complete blood cell count using a HemaVet 950 FS hematology analyzer (Drew Scientific). Plasma cytokine levels plasma were quantified using a mouse-specific MILLIPLEX MAP kit (Millipore) as described.

In data set [8] the test system is C. albicans. The settings on record: planktonic cells; cited from earlier work. The source says: RTD-1 is the prototype θ-defensin, the only known backbone cyclized polypeptides in the Animal Kingdom. All natural θ-defensin isoforms are 18-amino acid macrocycles stabilized by a six cysteine, tridisulfide core. […] As reported here and elsewhere, RTD-1 kills Candida ...

The conditions of data set [9]: cited from earlier work.
Setting [10] is: 5 mg/kg i.v., two-compartment model, mean.
Setting [11] is: candidemic mice, single 5 mg/kg i.p., 7 days p.i.
Where [12] appears, read: long term survivors, day 30 p.i.

`CC[C@H](C)C[C@H](C)CCCCCCCCC(=O)N[C@H]1C[C@@H](O)[C@@H](NCCN)NC(=O)[C@@H]2[C@@H](O)CCN2C(=O)[C@H]([C@H](O)CCN)NC(=O)[C@H]([C@H](O)[C@@H](O)c2ccc(O)cc2)NC(=O)[C@@H]2C[C@@H](O)CN2C(=O)[C@H]([C@@H](C)O)NC1=O` [Caspo, caspofungin]: the MIC in [1] (Candida albicans, 43001, RPMI 1640, 25 mM MOPS, 2 mM L-glutamine, 1 × 10^3 CFU/well, 30 °C, 48 h, A600, complete inhibition of growth, duplicate, read-out: MIC) was 2 µg/mL (≈ 1.83 µM); in data set [2] (Candida albicans, 53264, RPMI 1640, 25 mM MOPS, 2 mM L-glutamine, 1 × 10^3 CFU/well, 30 °C, 48 h, A600, complete inhibition of growth, duplicate, read-out: MIC), over 8 µg/mL; in data set [3] (RPMI 1640, 25 mM MOPS, 2 mM L-glutamine, 1 × 10^3 CFU/well, 30 °C, 48 h, A600, complete inhibition of growth, duplicate), 0.06 µg/mL (≈ 0.0549 µM). The MFC in [1] (Candida albicans, 43001, RPMI, plating of MIC wells on YPD, ≥99% killing of input inoculum) is 2 µg/mL (≈ 1.83 µM); in data set [2] (Candida albicans, 53264, RPMI, plating of MIC wells on YPD, ≥99% killing of input inoculum), over 8 µg/mL; in data set [3] (RPMI, plating of MIC wells on YPD, ≥99% killing of input inoculum), 0.25 µg/mL (≈ 0.229 µM). Besides, the “resistance relative to drug sensitive SC5314” value in [1] (strain 43001 vs SC5314, RPMI) is recorded as 33 fold; in [2] (strain 53264 vs SC5314, RPMI) it was over 133 fold.
For `CC[C@H](C)[C@@H]1NC(=O)[C@@H]2CSSC[C@H](NC(=O)[C@H](CCCNC(=N)N)NC(=O)[C@@H]3CSSC[C@H](NC1=O)C(=O)N[C@@H]([C@@H](C)O)C(=O)N[C@@H](CCCNC(=N)N)C(=O)NCC(=O)N[C@@H](Cc1ccccc1)C(=O)N3)C(=O)N[C@@H](CC(C)C)C(=O)N[C@H]1CSSC[C@H](NC(=O)[C@H](C(C)C)NC(=O)CNC(=O)[C@H](CCCNC(=N)N)NC(=O)[C@H](CCCNC(=N)N)NC1=O)C(=O)N[C@@H](CCCNC(=N)N)C(=O)N2` [RTD-1, Rhesus theta (θ) defensin-1] (cyclo(GFCRCLCRRGVCRCICTR); disulfide 3-16, 5-14, 7-12 (inferred); ring closure inferred), in [4] (RPMI), the “MFCs as multiple of the MICs” value is on record as 1–2 × the MICs. The “antifungal activity against blastospores in 50% mouse serum” value in [4] (peptide concentrations up to 100 µg/ml) was “inactive”. In addition, the tolerability entry in data set [5] (i.p. 5 mg/kg daily for 7 days, 20 mg/kg every other day for 10 days, once 50 mg/kg, observation at least 14 days) was “tolerated RTD-1 dosing at all levels”. Besides, the toxicity result in [5] (summary statement (Results)) was “non-toxic”. Further, in data set [6] (setting [10]), the “CLd, distributional clearance” value is 3.248 mL/h; the “K10, elimination rate constant from the central compartment” value worked out at 0.9719 h⁻¹; the “T1/2-λ1, distribution half-life” value was 0.5676 h; the “Vc, central volume of distribution” value is listed as 14.58 mL. In data set [6] (setting [10]), the “Vp, peripheral volume” value came to 24.88 mL; the “λ1, distribution rate constant” value was found to be 1.221 h⁻¹; the “λ2, terminal rate constant” value was 0.1039 h⁻¹. Further, the accumulation in plasma result in data set [6] (daily 5 mg/kg i.p. doses up to 6 days, levels 60 or 240 min after dose) is recorded as “did not accumulate in plasma”. Also, in data set [6] (mouse, in vivo, ip, 5 mg/kg), the maximum concentration (Cmax) came out at 670 ng/mL, the time to peak (Tmax) was found to be 4 h and the bioavailability was found to be 63.4%. In data set [6] (mouse, in vivo, iv, 5 mg/kg), this compound had a clearance of 0.236 mL/min and a half-life of 6.67 h. In data set [7] (candidemic mice (SC5314), single 5 mg/kg i.p. at T = 0, 4 h p.i.), the blood neutrophil counts result was “significantly (P = 0.008) increased blood neutrophil counts”. In [7] (candidemic mice, single 5 mg/kg i.p. at T = 0, day 7, vs saline), the blood neutrophil counts result is “significantly (P = 0.0002) lower”. In addition, in data set [7] (setting [11]), the “IL-10 or IL-6 levels” value is on record as “no effect”; the “blood proinflammatory cytokines TNF, IL-1β and IL-17” value is on record as “significant reduction”. Also, in data set [7] (setting [12]), the circulating granulocytes result is “homeostatic normalization of circulating granulocytes”; the “levels of TNF, IL-10 and IL-6” value is reported as “normalized to those of uninfected controls”. In [7] (naive mice), the blood cytokine levels entry is on record as “did not alter the levels of these cytokines”. In addition, the “increase of blood neutrophils” value in data set [7] (naive mice, single 5 mg/kg i.p., 4 h, P = 0.32) came to 2.3 fold. Also, the “time to permeabilization of C. albicans to propidium iodide” value in data set [8] was under 10 min. Besides, the “stability in serum and plasma” value in [9] is “highly stable”.

In general, MIC refers to the lowest concentration that inhibits growth of the organism. Broadly, the MFC is the smallest concentration meeting the test's criterion for killing the fungus. The term Cmax denotes the maximum level reached in the sampled fluid or tissue. The Tmax is the time at which the peak concentration occurs. One may read the bioavailability as the share of a dose that reaches the circulation, judged against a reference dose that is usually intravenous. A low value points to poor availability. A word on the clearance: it is a measure of how efficiently the substance is removed, as volume per time. A higher clearance goes with a high capacity for elimination. One may read the half-life as how long it takes for the measured level to halve. High values mean slow loss, low ones fast loss.
